Data reported in patent US12568972B2, “Pyridazinol compounds and derivatives, preparation methods, herbicidal compositions and applications thereof” (Qingdao Kingagroot Chemical Compound Co., Ltd., priority 2018, dated 2026).

system: Amaranthus retroflexus; assay: Post-emergence test, weed control effect; assay type: in vivo; details: Dose 3000 g/ha, after 3 weeks
Excerpt: (§1) The activity level standard of harmful plant destruction (i.e. growth inhibition rate) is as follows: • Level 10: completely dead; • Level 9: above 90% growth inhibition rate; • Level 8: above 80% growth inhibition rate; • Level 7: above 70% growth inhibition rate; • Level 6: above 60% growth inhibition rate; • Level 5: above 50% growth inhibition rate; • Level 4: above 40% growth inhibition rate; • Level 3: above 30% growth inhibition rate; • Level 2: above 20% growth inhibition rate; • Level 1: below 20% growth inhibition rate; • Level 0: no effect.
(§2) The above described growth inhibition rates are fresh weight inhibition rates.
(§3) Experiment of post-emergence test: monocotyledonous and dicotyledonous weed seeds as well as main crop seeds (i.e., wheat, corn, rice, soybean, cotton, oilseed rape, millet and sorghum) were put into a plastic pot loaded with soil, then covered with 0.5-2 cm of soil, and the seeds were allowed to grow in good greenhouse environment. The test plants were treated at 2-3 leaf stage 2-3 weeks after sowing. The test compounds of the invention were dissolved in acetone respectively, then added with Tween-80 and diluted by a certain amount of water to give solutions with certain concentrations, and added with 80% vegetable oil methyl ester synergist at 1500 g/ha. The solution was sprayed to the plants with a sprayer. The plants were cultured for 3 weeks in the greenhouse.

Row | Structure (SMILES) | weed control effect, Amaranthus retroflexus (activity level) | weed control effect (activity level), Amaranthus retroflexus
1 | O=C(Oc1cc(C(F)(F)F)nnc1-c1ccc(F)c(F)c1)c1cc2ccccc2o1 [Compound 1-120] | 10 | 
2 | O=C(Oc1cc(C(F)(F)F)nnc1-c1ccc(F)c(F)c1)c1ccc(Cl)nc1 [Compound 1-110] | 10 | 
3 | CC(C)COC(=S)Oc1cc(C(F)(F)F)nnc1-c1ccc(Cl)cc1Cl [Compound 1-158] | 10 | 
4 | Cc1cc(Cl)ncc1-c1nnc(C(F)(F)F)cc1O [Compound 1018] |  | 10
5 | Oc1cc(C(F)(F)F)nnc1-c1c(Cl)ccnc1F [Compound 999] |  | 10
6 | Oc1cc(C(F)(F)F)nnc1-c1ccc2ncccc2c1 [Compound 714] |  | 10
7 | CN1CCN(C(=O)Oc2cc(C(F)(F)F)nnc2-c2ccc(F)cc2)CC1 [Compound 1-64] | 10 | 
8 | O=C(Oc1cc(C(F)(F)F)nnc1-c1ccc(F)cc1)c1ccccc1O [Compound 1-85] | 10 | 
9 | O=C(Oc1cc(C(F)(F)F)nnc1-c1ccc(F)cc1)N1CCOCC1 [Compound 1-68] | 10 | 
10 | CC(C)CC(=O)Oc1cc(C(F)(F)F)nnc1-c1cccc(C(F)(F)F)c1 [Compound 1-8] | 10 | 
11 | COC(=O)/C=C/c1nnc(C(F)(F)F)cc1O [Compound 1522] |  | 10

same assay, conditions: dose 1000 g/ha, after 3 weeks

Row | Structure (SMILES) | weed control effect (activity level), Amaranthus retroflexus
12 | CCCOc1ccc(-c2nnc(C(F)(F)F)cc2O)cc1 [Compound 83] | 10
13 | Oc1cc(C(F)(F)F)nnc1-c1cccc(C(F)(F)F)c1 [Compound 92] | 10
14 | Oc1cc(C(F)(F)F)nnc1-c1cccc(Br)c1F [Compound 48] | 10

same assay, conditions: dose 2000 g/ha, after 3 weeks

Row | Structure (SMILES) | weed control effect (activity level), Amaranthus retroflexus
15 | C#Cc1ccc(-c2nnc(C(F)(F)F)cc2O)c(OC(C)=O)c1 [Compound 173] | 10
16 | COc1ncccc1-c1nnc(C(F)(F)F)cc1O [Compound 227] | 10
17 | C=Cc1cc(-c2nnc(C(F)(F)F)cc2O)c(F)cc1Cl [Compound 166] | 10

system: Chenopodiaceae; assay: Post-emergence test, weed control effect; assay type: in vivo; details: Dose 3000 g/ha, after 3 weeks
Excerpt: as §1, §2, §3

Row | Structure (SMILES) | weed control effect, Chenopodiaceae (activity level) | weed control effect (activity level), Chenopodiaceae
18 | O=C(Oc1cc(C(F)(F)F)nnc1-c1ccc(F)c(F)c1)c1cc2ccccc2o1 [Compound 1-120] | 10 | 
19 | O=C(Oc1cc(C(F)(F)F)nnc1-c1ccc(F)c(F)c1)c1ccc(Cl)nc1 [Compound 1-110] | 10 | 
20 | CC(C)COC(=S)Oc1cc(C(F)(F)F)nnc1-c1ccc(Cl)cc1Cl [Compound 1-158] | 10 | 
21 | Cc1cc(Cl)ncc1-c1nnc(C(F)(F)F)cc1O [Compound 1018] |  | 10
22 | Oc1cc(C(F)(F)F)nnc1-c1c(Cl)ccnc1F [Compound 999] |  | 10
23 | Oc1cc(C(F)(F)F)nnc1-c1ccc2ncccc2c1 [Compound 714] |  | 10
24 | CN1CCN(C(=O)Oc2cc(C(F)(F)F)nnc2-c2ccc(F)cc2)CC1 [Compound 1-64] | 10 | 
25 | O=C(Oc1cc(C(F)(F)F)nnc1-c1ccc(F)cc1)c1ccccc1O [Compound 1-85] | 10 | 
26 | O=C(Oc1cc(C(F)(F)F)nnc1-c1ccc(F)cc1)N1CCOCC1 [Compound 1-68] | 10 | 
27 | CC(C)CC(=O)Oc1cc(C(F)(F)F)nnc1-c1cccc(C(F)(F)F)c1 [Compound 1-8] | 10 | 
28 | COC(=O)/C=C/c1nnc(C(F)(F)F)cc1O [Compound 1522] |  | 10

same assay, conditions: dose 1000 g/ha, after 3 weeks

Row | Structure (SMILES) | weed control effect (activity level), Chenopodiaceae
29 | CCCOc1ccc(-c2nnc(C(F)(F)F)cc2O)cc1 [Compound 83] | 10
30 | Oc1cc(C(F)(F)F)nnc1-c1cccc(C(F)(F)F)c1 [Compound 92] | 10
31 | Oc1cc(C(F)(F)F)nnc1-c1cccc(Br)c1F [Compound 48] | 10

same assay, conditions: dose 2000 g/ha, after 3 weeks

Row | Structure (SMILES) | weed control effect (activity level), Chenopodiaceae
32 | C#Cc1ccc(-c2nnc(C(F)(F)F)cc2O)c(OC(C)=O)c1 [Compound 173] | 10
33 | COc1ncccc1-c1nnc(C(F)(F)F)cc1O [Compound 227] | 10
34 | C=Cc1cc(-c2nnc(C(F)(F)F)cc2O)c(F)cc1Cl [Compound 166] | 10

system: Veronica polita; assay: Post-emergence test, weed control effect; assay type: in vivo; details: Dose 3000 g/ha, after 3 weeks
Excerpt: as §1, §2, §3

Row | Structure (SMILES) | weed control effect, Veronica polita (activity level) | weed control effect (activity level), Veronica polita
35 | O=C(Oc1cc(C(F)(F)F)nnc1-c1ccc(F)c(F)c1)c1cc2ccccc2o1 [Compound 1-120] | 10 | 
36 | O=C(Oc1cc(C(F)(F)F)nnc1-c1ccc(F)c(F)c1)c1ccc(Cl)nc1 [Compound 1-110] | 10 | 
37 | CC(C)COC(=S)Oc1cc(C(F)(F)F)nnc1-c1ccc(Cl)cc1Cl [Compound 1-158] | 10 | 
38 | Cc1cc(Cl)ncc1-c1nnc(C(F)(F)F)cc1O [Compound 1018] |  | 10
39 | Oc1cc(C(F)(F)F)nnc1-c1c(Cl)ccnc1F [Compound 999] |  | 10
40 | Oc1cc(C(F)(F)F)nnc1-c1ccc2ncccc2c1 [Compound 714] |  | 10
41 | CN1CCN(C(=O)Oc2cc(C(F)(F)F)nnc2-c2ccc(F)cc2)CC1 [Compound 1-64] | 10 | 
42 | O=C(Oc1cc(C(F)(F)F)nnc1-c1ccc(F)cc1)c1ccccc1O [Compound 1-85] | 10 | 
43 | O=C(Oc1cc(C(F)(F)F)nnc1-c1ccc(F)cc1)N1CCOCC1 [Compound 1-68] | 10 | 
44 | CC(C)CC(=O)Oc1cc(C(F)(F)F)nnc1-c1cccc(C(F)(F)F)c1 [Compound 1-8] | 10 | 

same assay, conditions: dose 1000 g/ha, after 3 weeks

Row | Structure (SMILES) | weed control effect (activity level), Veronica polita
45 | CCCOc1ccc(-c2nnc(C(F)(F)F)cc2O)cc1 [Compound 83] | 10
46 | Oc1cc(C(F)(F)F)nnc1-c1cccc(C(F)(F)F)c1 [Compound 92] | 10
47 | Oc1cc(C(F)(F)F)nnc1-c1cccc(Br)c1F [Compound 48] | 10

same assay, conditions: dose 2000 g/ha, after 3 weeks

Row | Structure (SMILES) | weed control effect (activity level), Veronica polita
48 | C#Cc1ccc(-c2nnc(C(F)(F)F)cc2O)c(OC(C)=O)c1 [Compound 173] | 10
49 | COc1ncccc1-c1nnc(C(F)(F)F)cc1O [Compound 227] | 10
50 | C=Cc1cc(-c2nnc(C(F)(F)F)cc2O)c(F)cc1Cl [Compound 166] | 10

system: Rorippa indica; assay: Post-emergence test, weed control effect; assay type: in vivo; details: Dose 3000 g/ha, after 3 weeks
Excerpt: as §1, §2, §3

Row | Structure (SMILES) | weed control effect, Rorippa indica (activity level) | weed control effect (activity level), Rorippa indica
51 | O=C(Oc1cc(C(F)(F)F)nnc1-c1ccc(F)c(F)c1)c1cc2ccccc2o1 [Compound 1-120] | 10 | 
52 | O=C(Oc1cc(C(F)(F)F)nnc1-c1ccc(F)c(F)c1)c1ccc(Cl)nc1 [Compound 1-110] | 10 | 
53 | CC(C)COC(=S)Oc1cc(C(F)(F)F)nnc1-c1ccc(Cl)cc1Cl [Compound 1-158] | 10 | 
54 | Cc1cc(Cl)ncc1-c1nnc(C(F)(F)F)cc1O [Compound 1018] |  | 10
55 | Oc1cc(C(F)(F)F)nnc1-c1c(Cl)ccnc1F [Compound 999] |  | 10
56 | Oc1cc(C(F)(F)F)nnc1-c1ccc2ncccc2c1 [Compound 714] |  | 10
57 | CN1CCN(C(=O)Oc2cc(C(F)(F)F)nnc2-c2ccc(F)cc2)CC1 [Compound 1-64] | 10 | 
58 | O=C(Oc1cc(C(F)(F)F)nnc1-c1ccc(F)cc1)c1ccccc1O [Compound 1-85] | 10 | 
59 | O=C(Oc1cc(C(F)(F)F)nnc1-c1ccc(F)cc1)N1CCOCC1 [Compound 1-68] | 10 | 
60 | CC(C)CC(=O)Oc1cc(C(F)(F)F)nnc1-c1cccc(C(F)(F)F)c1 [Compound 1-8] | 10 | 

same assay, conditions: dose 1000 g/ha, after 3 weeks

Row | Structure (SMILES) | weed control effect (activity level), Rorippa indica
61 | CCCOc1ccc(-c2nnc(C(F)(F)F)cc2O)cc1 [Compound 83] | 10
62 | Oc1cc(C(F)(F)F)nnc1-c1cccc(C(F)(F)F)c1 [Compound 92] | 10
63 | Oc1cc(C(F)(F)F)nnc1-c1cccc(Br)c1F [Compound 48] | 10

same assay, conditions: dose 2000 g/ha, after 3 weeks

Row | Structure (SMILES) | weed control effect (activity level), Rorippa indica
64 | C#Cc1ccc(-c2nnc(C(F)(F)F)cc2O)c(OC(C)=O)c1 [Compound 173] | 10
65 | COc1ncccc1-c1nnc(C(F)(F)F)cc1O [Compound 227] | 10
66 | C=Cc1cc(-c2nnc(C(F)(F)F)cc2O)c(F)cc1Cl [Compound 166] | 10
